Data published in patent US9145418B2, “Substituted 3,4-dihydropyrrolo[1,2-a]pyrazin-1(2H)-ones as protein kinase inhibitors” (NERVIANO MEDICAL SCIENCES S.R.L., priority 2011, dated 2015).

Tests used:
[1] = test system: MV-4-11 (biphenotypic B myelomonocytic leukemia) cells; test: In vitro cell proliferation assay (CellTiter-Glo); type: cell-based; details: Homo sapiens, MV4-11, MV-4-11 cells, 72 hours
Procedure: In vitro Cell Proliferation Assay
MV-4-11 (biphenotypic B myelomonocytic leukemia) cells (1250 cells/well) were seeded in white 384 well-plates in complete medium (RPMI 1640 or EMEM plus 10% Fetal bovine serum) and treated with compounds dissolved in 0.1% DMSO, 24 h after seeding. The cells were incubated at 37° C. and 5% CO2 and after 72 hours the plates were processed using CellTiter-Glo assay (Promega) following the manufacturer's instruction.
CellTiter-Glo is a homogenous method based on the quantification of the ATP present, an indicator of metabolically active cells. ATP is quantified using a system based on luciferase and D-luciferin resulting into light generation. The luminescent signal is proportional to the number of cells present in culture.
Briefly 25 μl/well reagent solution were added to each wells and after 5 minutes shacking microplates were red by Envision (PerkinElmer) luminometer. The luminescent signal was proportional to the number of cells present in culture.
Inhibitory activity was evaluated comparing treated versus control data using Assay Explorer (MDL) program. IC50 was calculated using sigmoidal interpolation curve.

[2] = target: Full-length human PIM1 (Homo sapiens (Human), UniProt P11309); test: Biochemical assay for inhibitors of PIM1 kinase activity (33P trans-phosphorylation, Dowex); details: ATP 200 μM, Aktide 25 μM, enzyme 1 nM; read-out: PIM-1 IC50
Sequence of Full-length human PIM1 (P11309 whole entry): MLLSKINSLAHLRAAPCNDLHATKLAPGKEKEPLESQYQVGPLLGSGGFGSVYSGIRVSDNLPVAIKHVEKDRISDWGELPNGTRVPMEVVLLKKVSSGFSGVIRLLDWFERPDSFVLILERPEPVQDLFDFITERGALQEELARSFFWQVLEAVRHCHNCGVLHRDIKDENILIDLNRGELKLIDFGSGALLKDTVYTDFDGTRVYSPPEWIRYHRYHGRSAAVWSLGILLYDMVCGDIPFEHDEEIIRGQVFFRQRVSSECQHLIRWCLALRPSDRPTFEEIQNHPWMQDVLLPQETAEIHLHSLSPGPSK
Procedure: The short forms and abbreviations used herein have the following meaning: • Ci Curie • DMSO dimethylsulfoxide • KDa kiloDalton • microCi microCurie • mg milligram • microg microgram • ng nanogram • L liter • mL milliliter • μL microliter • M molar • mM millimolar • μM micromolar • nM nanomolar Biochemical Assay for Inhibitors of PIM1 Kinase Activity
The inhibitory activity of putative kinase inhibitors and the potency of selected compounds were determined using a trans-phosphorylation assay.
Specific peptide or protein substrates are trans-phosphorylated by their specific ser-thr or tyr kinase in the presence of ATP traced with ^33P-γ-ATP, and in the presence of their own optimal buffer and cofactors.
At the end of the phosphorylation reaction, more than 98% unlabeled ATP and radioactive ATP is captured by an excess of the ion exchange Dowex resin; the resin then settles down to the bottom of the reaction plate by gravity. Supernatant is subsequently withdrawn and transferred into a counting plate, then evaluated by β-counting.
The buffer for PIM1 assay was composed of HEPES 50 mM, at pH 7.5, with 10 mM MgCl2, 1 mM DTT, 3 μM NaVO3, and 0.2 mg/mL BSA.
Full-length human PIM1 was expressed and purified as described in Bullock A N, et al., J. Biol. Chem. 2005, 280, 41675-82.
ATP concentration: 200 μM
Enzyme concentration: 1 nM
Substrate concentration Aktide (Chemical Abstract Service Registry Number 324029-01-8): 25 μM
The test mix consisted of: • 1) 3× Enzyme mix (done in Kinase Buffer 3×), 5 μL/well • 2) 3× substrate and ATP mix (done in ddH2O), together with ^33P-γ-ATP, 5 μL/well • 3) 3× test compounds (diluted into ddH2O-3% DMSO)—5 μL/well
An automated station (Biomek FX, Beckman) was used for serial dilutions, producing 1:3 dilutions in 100% DMSO, from line A1 to A10, for all the compounds in the column. […] In a standard experiment, the highest concentration (3×) of compounds is typically 30 μM, while the lowest one is typically 1.5 nM. Each 384-well plate generates at least one curve of the standard inhibitor staurosporine and reference wells (total enzyme activity vs. no enzymatic activity) for evaluation of Z′ and signal to background (SIB) ratio.
384-well plates, V bottom (test plates) are prepared with 5 μl of compound diluted as previously described (3×) and then placed onto a PlateTrak 12 robotized station (Perkin Elmer; the robot has one 384-tip pipetting head for assay start, plus one 96-tip head for dispensing resin) together with one reservoir for Enzyme mix (3×) and one for ATP mix (3×).
Data are analyzed by an internally customized version of the “Assay Explorer” SW package, which provides sigmoidal fitting of the ten-dilution curves for IC50 determination in secondary assay/hit confirmation routines.

[3] = target: Full-length human PIM2 (Homo sapiens (Human), UniProt Q9P1W9); test: PIM2 kinase inhibition assay: Dowex technique; type: biochemical; details: ATP 4 μM, Aktide 5 μM, enzyme 1.5 nM; read-out: PIM-2 IC50
Sequence of Full-length human PIM2 (Q9P1W9 whole entry): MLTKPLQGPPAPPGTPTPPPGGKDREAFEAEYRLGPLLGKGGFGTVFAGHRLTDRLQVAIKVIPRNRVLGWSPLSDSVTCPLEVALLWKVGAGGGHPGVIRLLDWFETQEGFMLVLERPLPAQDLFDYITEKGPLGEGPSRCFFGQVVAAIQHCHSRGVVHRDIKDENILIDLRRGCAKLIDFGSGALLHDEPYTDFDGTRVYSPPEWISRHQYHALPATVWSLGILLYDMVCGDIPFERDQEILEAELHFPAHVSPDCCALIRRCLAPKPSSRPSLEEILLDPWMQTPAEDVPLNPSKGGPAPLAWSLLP
Procedure: Method for PIM2 Kinase Inhibition Assay: Dowex Technique
The buffer for PIM2 assay was composed of HEPES 50 mM, at pH 7.5, with 1 mM MgCl2, 1 mM DTT, 3 μM Na3VO4, and 0.2 mg/mL BSA.
Full-length human PIM2 was expressed and purified as described in Fedorov O, et al., PNAS 2007 104, 51, 20523-28.
Enzyme concentration=1.5 nM
Aktide substrate (Chemical Abstract Service Registry Number 324029-01-8)=5 μM
See above: same procedure as described for PIM1.

Row | Structure (SMILES) | IC50 [1] [nM] | IC50 [2] [nM] | IC50 [3] [nM]
1 | CN1CCN(C[C@@H](NC(=O)C[C@H]2CNC(=O)c3cc(-c4cccc(Cl)c4)cn32)C2CCCCC2)CC1 [Compound 2, 2-[(4S)-7-(3-chlorophenyl)-1-oxo-1,2,3,4-tetrahydropyrrolo[1,2-a]pyrazin-4-yl]-N-[(1S)-1-cyclohexyl-2-(4-methylpiperazin-1-yl)ethyl]acetamide] | 1530 | 1 | 
2 | CN(C)C1CCN(C[C@@H](NC(=O)C[C@H]2CNC(=O)c3cc(-c4ccc(F)c(F)c4)cn32)C2CCCCC2)CC1 [Compound 6, N-{(1S)-1-cyclohexyl-2-[4-(dimethylamino)piperidin-1-yl]ethyl}-2-[(4S)-7-(3,4-difluorophenyl)-1-oxo-1,2,3,4-tetrahydropyrrolo[1,2-a]pyrazin-4-yl]acetamide] | 3150 | 8 | 171
3 | CN(C)C1CCN(C[C@@H](NC(=O)C[C@H]2CNC(=O)c3cc(-c4ccnc(F)c4)cn32)C2CCCCC2)CC1 [Compound 10, N-{(1S)-1-cyclohexyl-2-[4-(dimethylamino)piperidin-1-yl]ethyl}-2-[(4S)-7-(2-fluoropyridin-4-yl)-1-oxo-1,2,3,4-tetrahydropyrrolo[1,2-a]pyrazin-4-yl]acetamide] | 6750 | 6 | 57
4 | CN(C)C1CCN(C[C@@H](NC(=O)C[C@H]2CNC(=O)c3cc(-c4cccc(Cl)c4)cn32)C2CCCCC2)CC1 [Compound 23, 2-[(4S)-7-(3-chlorophenyl)-1-oxo-1,2,3,4-tetrahydropyrrolo[1,2-a]pyrazin-4-yl]-N-{(1S)-1-cyclohexyl-2-[4-(dimethylamino)piperidin-1-yl]ethyl}acetamide] | 1130 | 1 | 36
5 | CN1CCN(C[C@@H](NC(=O)C[C@H]2CNC(=O)c3cc(-c4cc(Cl)ccc4F)cn32)C2CCCCC2)CC1 [Compound 26, 2-[(4S)-7-(5-chloro-2-fluorophenyl)-1-oxo-1,2,3,4-tetrahydropyrrolo[1,2-a]pyrazin-4-yl]-N-[(1S)-1-cyclohexyl-2-(4-methylpiperazin-1-yl)ethyl]acetamide] | 1160 | 2 | 132
